Consider 1 molecule from patent EP0956028B1, “[…] INHIBITION OF […] GROWTH” (Purdue Research Foundation, priority 1996, dated 1998).

This assay relates to A549 human lung carcinoma cells. Kind of assay: Tumor cell proliferation (cell count), indirect co-culture with submucosal tissue membrane. The format is cell-based. How it is done:
Carcinoma ceil lines including A549 (human lung adenocarcinoma), MCF-7 (human breast carcinoma) and human colorectal carcinoma cell lines were obtained from American Type Cell Culture (ATCC). Cell cultures were routinely performed at 37°C in an incubator supplemented with 5% CO2 and 95% air. Media used were F-12 pius 10° o FBS (fetal bovine serum) (Gibco BRL) for the A549 cells and RPMI plus 10% FBS (Gibco BRL) for both the MCF-7 and colonic carcinoma cell lines. The inhibition of tumor cell growth on several different forms of submucosal tissue including PA-ST (submucosal tissue sterilized in peracetic acid), Native submucosal tissue (no further treatment after dissection), Gamma irradiated submucosal tissue and solubilized submucosal tissue was assessed.
Cancer cells were cultured in the presence of various forms of intestinal submucosal tissue at 37°C in an incubator supplemented with 5% CO2 and 95% air using the following procedures: • 1. Direct Contact: Intestinal submucosal tissue and the cultured cells physically contact one another. • 2. Indirect Contact: Intestinal submucosal tissue and the cultured cells are separated by a stainless steel mesh. • 3. Solubilized intestinal submucosal tissue added to the culture media. • 4. Cells are cultured on solubilized intestinal submucosa coated culture plate. The coating was applied by placing 1 ml of solubilized intestinal submucosal tissue in a 35mm culture plate, heating at 37°C for 2 hours, removing the excess intestinal submucosal tissue fluid by aspiration and washing the coated plates once with culture media.
• 1. […]
Tumor cells were plated at a cell density of approximately 5x10^5 cells/dish of 60 mm tissue culture dishes and grown until they reached about 50% confluence. Cell cultures were then subjected to the following treatments in triplicates: 1) control, cells grown in media only; 2) addition of different quantities of solubilized submucosal tissue (200-800 µl); 3) co-culture with submucosal tissue membranes of different sizes (indirect co-culture). […]

Regarding `CC(=O)OO` [Peracidic Acid, peracetic acid], the “Cell Count (x10^5) (day 2 of treatment)” value (100 µl of Peracidic Acid, A549) was 18.81 ± 2.59 x10^5. In addition, the “% of Control” value (100 µl of Peracidic Acid, A549 cell count, day 2 of treatment) is recorded as 97%. Also, the “inhibitory effect on cell proliferation” value (added exogenously to tumor cells) is “no significant inhibitory effect”.
